The target in experiment [1] is T1, Dimer of Gag-Pol polyprotein [489-587] (Human immunodeficiency virus 1, UniProt P12497).
T1 construct: 489-587
Kind of experiment: Protease Inhibition Assay. Conditions: pH 6.25; 37 °C. As to the method:
(§1) Enzymatic activity was measured by following cleavage of the substrate H-Lys-Ala-Arg-Val-Leu-pNph-Glu-Ala-Nle-NH2. Products of the cleavage reaction were quantified by HPLC detection.

Experiment [2] concerns the target T2, Dimer of Gag-Pol polyprotein [514-612] (Human immunodeficiency virus 2, UniProt P04584).
T2 construct: 514-612
T2 sequence (P04584 whole entry): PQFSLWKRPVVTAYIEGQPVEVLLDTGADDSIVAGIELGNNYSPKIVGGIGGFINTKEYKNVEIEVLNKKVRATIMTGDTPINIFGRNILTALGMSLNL
Kind of experiment: Protease Inhibition Assay. To be noted: pH 4.7; 37 °C. How it is done: as §1

In experiment [1], `CC(C)C1NC(=O)[C@@H](C(O)[C@H](Cc2ccccc2)NC(=O)OC(C)(C)C)NCc2ccc(cc2)OCCCCNC1=O` (stereo partly drawn) [tert-butyl N-[(1S,2S)-1-[(9R,12R)-8,11-dioxo-9-(propan-2-yl)-2-oxa-7,10,13-triazabicyclo[13.2.2]nonadeca-1(17),15,18-trien-12-yl]-1-hydroxy-3-phenylpropan-2-yl]carbamate] displayed a Ki of 17 nM.

`CC(C)C1NC(=O)[C@@H](C(O)[C@H](Cc2ccccc2)NC(=O)[C@@H](NC(=O)CSc2nncn2C)C(C)(C)C)NCc2ccc(cc2)OCCOCCNC1=O` (stereo partly drawn) [(2S)-N-[(1S,2S)-1-[(10R,13R)-9,12-dioxo-10-(propan-2-yl)-2,5-dioxa-8,11,14-triazabicyclo[14.2.2]icosa-1(18),16,19-trien-13-yl]-1-hydroxy-3-phenylpropan-2-yl]-3,3-dimethyl-2-{2-[(4-methyl-4H-1,2,4-triazol-3-yl)sulfanyl]acetamido}butanamide] displayed a Ki in experiment [1] of 11.1 nM. The same measure, in the same setting: the result for `CC(C)C1NC(=O)[C@@H](C(O)[C@H](Cc2ccccc2)NC(=O)OC(C)(C)C)NCc2ccc(cc2)OCCOCCOCCOCCNC1=O` (stereo partly drawn) [tert-butyl N-[(1S,2S)-1-[(16R,19R)-15,18-dioxo-16-(propan-2-yl)-2,5,8,11-tetraoxa-14,17,20-triazabicyclo[20.2.2]hexacosa-1(24),22,25-trien-19-yl]-1-hydroxy-3-phenylpropan-2-yl]carbamate] reads 23.2 nM. On to `CC(C)C1NC(=O)[C@@H](C(O)[C@H](Cc2ccccc2)NC(=O)[C@@H](NC(=O)OCc2ccccc2)C(C)C)NCc2ccc(cc2)OCCOCCNC1=O` (stereo partly drawn) [benzyl N-[(1S)-1-{[(1S,2S)-1-[(10R,13R)-9,12-dioxo-10-(propan-2-yl)-2,5-dioxa-8,11,14-triazabicyclo[14.2.2]icosa-1(18),16,19-trien-13-yl]-1-hydroxy-3-phenylpropan-2-yl]carbamoyl}-2-methylpropyl]carbamate], for which the Ki in experiment [2] stood at 19 nM; in experiment [1] it was 7.9 nM. In the case of `CC(C)C1NC(=O)[C@@H](C(O)[C@H](Cc2ccccc2)NC(=O)[C@@H](NC(=O)OCc2ccccc2)C(C)C)NCc2cccc(c2)OCCOCCOCCNC1=O` (stereo partly drawn) [benzyl N-[(1S)-1-{[(1S,2S)-1-[(13R,16R)-12,15-dioxo-13-(propan-2-yl)-2,5,8-trioxa-11,14,17-triazabicyclo[17.3.1]tricosa-1(22),19(23),20-trien-16-yl]-1-hydroxy-3-phenylpropan-2-yl]carbamoyl}-2-methylpropyl]carbamate], the affinity in experiment [1], expressed as Ki, was 7.7 nM. For the molecule `CC(C)C1NC(=O)[C@@H](C(O)[C@H](Cc2ccccc2)NC(=O)[C@@H](NC(=O)OCc2ccccc2)C(C)(C)C)NCc2ccc(cc2)OCCOCCNC1=O` (stereo partly drawn) [benzyl N-[(1S)-1-{[(1S,2S)-1-[(10R,13R)-9,12-dioxo-10-(propan-2-yl)-2,5-dioxa-8,11,14-triazabicyclo[14.2.2]icosa-1(18),16,19-trien-13-yl]-1-hydroxy-3-phenylpropan-2-yl]carbamoyl}-2,2-dimethylpropyl]carbamate], the figures for the Ki in experiment [2] and in experiment [1] were 16 nM and 8 nM, respectively. The molecule `COc1ccc(CN[C@@H](C(=O)NC(C(=O)NCc2nc3ccccc3[nH]2)C(C)C)C(O)[C@H](Cc2ccccc2)NC(=O)[C@@H](NC(=O)OCc2ccccc2)C(C)C)cc1` (stereo partly drawn) [benzyl N-[(1S)-1-{[(2S,3S,4R)-4-{[(1R)-1-[(1H-1,3-benzodiazol-2-ylmethyl)carbamoyl]-2-methylpropyl]carbamoyl}-3-hydroxy-4-{[(4-methoxyphenyl)methyl]amino}-1-phenylbutan-2-yl]carbamoyl}-2-methylpropyl]carbamate] returned a Ki in experiment [1] of 3.4 nM. With `CC(C)C1NC(=O)[C@@H](C(O)[C@H](Cc2ccccc2)NC(=O)OC2CCOC2)NCc2ccc(cc2)OCCOCCNC1=O` (stereo partly drawn) [(3R)-oxolan-3-yl N-[(1S,2S)-1-[(10R,13R)-9,12-dioxo-10-(propan-2-yl)-2,5-dioxa-8,11,14-triazabicyclo[14.2.2]icosa-1(18),16,19-trien-13-yl]-1-hydroxy-3-phenylpropan-2-yl]carbamate], the affinity in experiment [1] corresponds to a Ki of 8.2 nM. The same measure, in the same setting: the result for `CC(C)C1NC(=O)[C@@H](C(O)[C@H](Cc2ccccc2)NC(=O)[C@@H](NC(=O)OCc2ccccc2)C(C)C)NCc2ccc(cc2)OCCCCNC1=O` (stereo partly drawn) [benzyl N-[(1S)-1-{[(1S,2S)-1-[(9R,12R)-8,11-dioxo-9-(propan-2-yl)-2-oxa-7,10,13-triazabicyclo[13.2.2]nonadeca-1(17),15,18-trien-12-yl]-1-hydroxy-3-phenylpropan-2-yl]carbamoyl}-2-methylpropyl]carbamate] reads 6.6 nM. Turning to `COc1ccc(CN[C@@H](C(=O)N[C@H]2c3ccccc3CC2O)C(O)[C@H](Cc2ccccc2)NC(=O)[C@@H](NC(=O)OCc2ccccc2)C(C)(C)C)cc1` (stereo partly drawn) [benzyl N-[(1S)-1-{[(2S,3S,4R)-3-hydroxy-4-{[(1S,2S)-2-hydroxy-2,3-dihydro-1H-inden-1-yl]carbamoyl}-4-{[(4-methoxyphenyl)methyl]amino}-1-phenylbutan-2-yl]carbamoyl}-2,2-dimethylpropyl]carbamate], the figures for the Ki in experiment [2] and in experiment [1] were 50 nM and 9.5 nM, respectively. Turning to `CC(C)C1NC(=O)[C@@H](C(O)[C@H](Cc2ccccc2)NC(=O)OC(C)(C)C)NCc2cccc(c2)OCCOCCOCCNC1=O` (stereo partly drawn) [tert-butyl N-[(1S,2S)-1-[(13R,16R)-12,15-dioxo-13-(propan-2-yl)-2,5,8-trioxa-11,14,17-triazabicyclo[17.3.1]tricosa-1(22),19(23),20-trien-16-yl]-1-hydroxy-3-phenylpropan-2-yl]carbamate], in experiment [1], the inhibition constant (Ki) was determined as 208 nM. Take `CC(C)C1NC(=O)[C@@H](C(O)[C@H](Cc2ccccc2)NC(=O)[C@@H](NC(=O)OCc2ccccc2)C(C)C)NCc2ccc(cc2)OCCOCCOCCNC1=O` (stereo partly drawn) [benzyl N-[(1S)-1-{[(1S,2S)-1-[(13R,16R)-12,15-dioxo-13-(propan-2-yl)-2,5,8-trioxa-11,14,17-triazabicyclo[17.2.2]tricosa-1(21),19,22-trien-16-yl]-1-hydroxy-3-phenylpropan-2-yl]carbamoyl}-2-methylpropyl]carbamate]: the Ki in experiment [2] was 27 nM; in experiment [1], 6.9 nM. In experiment [1], `CC(C)C1NC(=O)[C@@H](C(O)[C@H](Cc2ccccc2)NC(=O)OC(C)(C)C)NCc2ccc(cc2)OCCOCCNC1=O` (stereo partly drawn) [tert-butyl N-[(1S,2S)-1-[(10R,13R)-9,12-dioxo-10-(propan-2-yl)-2,5-dioxa-8,11,14-triazabicyclo[14.2.2]icosa-1(18),16,19-trien-13-yl]-1-hydroxy-3-phenylpropan-2-yl]carbamate] yielded a Ki of 14 nM.

(Values after BindingDB's records for doi:10.1021/jm950641i (Sandoz Research Institute, 1996).)
